Laboratory results taken from the NIST ThermoML archive (doi:10.1021/je1009224).

Columns and labels:
[1] = 101.3 kPa, Liquid
[2] = xn = mol fraction of the nth substance listed; settings: 101 kPa, Liquid

CCCCCC[n+]1ccn(C)c1.O=S(=O)([N-]S(=O)(=O)C(F)(F)F)C(F)(F)F
[1]
Settings	viscosity [mPa·s]
283.1 K	136
298.15 K	70.1
323.15 K	25.8
348.15 K	13.5

CCCCCC[n+]1ccn(C)c1.O=S(=O)([N-]S(=O)(=O)C(F)(F)F)C(F)(F)F + C=CCCCCCC
[2], x2 = 0
Settings	viscosity [mPa·s]
283.1 K	136
298.15 K	70.1
323.15 K	25.8
348.15 K	13.5

C=CCCCCCC [oct-1-ene]
[1]
Settings	viscosity [mPa·s]
283.1 K	0.56
298.15 K	0.47
323.15 K	0.37
348.15 K	0.3

C=CCCCCCC [oct-1-ene] + CCCCCC[n+]1ccn(C)c1.O=S(=O)([N-]S(=O)(=O)C(F)(F)F)C(F)(F)F
viscosity [mPa·s], [2]
Settings	283.1 K	298.15 K	323.15 K	348.15 K
x1 = 0.05	127	66.6	24.4	13
x1 = 0.1	106	56.2	21.6	11.6
x1 = 0.15	93	51.2	20.5	11.4
x1 = 1	0.56	0.47	0.37	0.3
